Results on 41 molecules are retold here after PubChem BioAssay AID1332 (Southern Research Institute, 2008).

Each structure is given as a SMILES string. ≈ marks a conversion by molar mass, not a printed value.

The test system of this assay is M. tuberculosis H37Rv growth inhibition. In words: Mycobacterium tuberculosis H37Rv growth inhibition, confirmatory dose response, cytotoxicity (AID 1332).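 Also: bacteria incubated 7 days before adding Alamar blue readout reagent.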
As a reminder, the IC90 is the point of the concentration-response curve where the effect stands at 90%. Consider `N[C@@H]1CONC1=O`, for which the concentration for an effect of 90% (IC90) was 1.05 µg/mL (≈ 10.3 µM).

As for `NCC[C@H](O)C(=O)N[C@@H]1C[C@H](N)[C@@H](O[C@H]2O[C@H](CN)[C@@H](O)[C@H](O)[C@H]2O)[C@H](O)[C@H]1O[C@H]1O[C@H](CO)[C@@H](O)[C@H](N)[C@H]1O`, the concentration for an effect of 90% (IC90) was 0.04 µg/mL (≈ 0.0683 µM).

As to `CC(C)COCC(CN(Cc1ccccc1)c1ccccc1)N1CCCC1` (stereo unspecified), the concentration for an effect of 90% (IC90) was 11.3 µg/mL (≈ 30.7 µM).

In the case of `CC(=O)O[C@H]1C[C@@]2(C)[C@@H](C[C@@H](O)[C@H]3[C@@]4(C)CC[C@@H](O)[C@@H](C)C4CC[C@@]32C)/C1=C(\CCC=C(C)C)C(=O)O` (stereo partly specified), the concentration for an effect of 90% (IC90) is 0.586 µg/mL (≈ 1.13 µM).

For `Nc1ccc(S(=O)(=O)Nc2cnc3ccccc3n2)cc1`, the 90% effect concentration (IC90) is 12.7 µg/mL (≈ 42.3 µM).

Consider `CC(Cc1ccccc1)NCCC(c1ccccc1)c1ccccc1` (stereo unspecified), for which the IC90 was 4.55 µg/mL (≈ 13.8 µM).

With `CC(C)(C)c1ccc(C(O)CCCN2CCC(C(O)(c3ccccc3)c3ccccc3)CC2)cc1` (stereo unspecified), the IC90 is 1.61 µg/mL (≈ 3.42 µM).

Take `CN(CCCCCCCCCCN(C)C(=O)Oc1cccc([N+](C)(C)C)c1)C(=O)Oc1cccc([N+](C)(C)C)c1`: the IC90 is 2.19 µg/mL.

In the case of `CN(C(=O)CN(CCO)CC(=O)N(C)C(C)(C)Cc1ccccc1)C(C)(C)Cc1ccccc1`, the IC90 was 15.6 µg/mL (≈ 33.4 µM).

Take `CN(C)CC/C=C1\c2ccccc2Sc2ccc(Cl)cc21`: the IC90 was 3.93 µg/mL (≈ 12.4 µM).

For the molecule `OCCN1CCN(CCCN2c3ccccc3Sc3ccc(Cl)cc32)CC1`, the IC90 was 11.7 µg/mL (≈ 28.9 µM).

In the case of `CNCCC=C1c2ccccc2CCc2ccccc21`, the IC90 is 16.8 µg/mL (≈ 63.6 µM).

Consider `C1CCC(C(CC2CCCCN2)C2CCCCC2)CC1` (stereo unspecified), for which the IC90 was 1.99 µg/mL (≈ 7.16 µM).

As to `CN(C)CCCN1c2ccccc2CCc2ccc(Cl)cc21`, the IC90 was 9.56 µg/mL (≈ 30.4 µM).

Consider `COc1cc(NS(=O)(=O)c2ccc(N)cc2)ncn1`, for which the IC90 was 3.78 µg/mL (≈ 13.5 µM).

`Clc1ccccc1C(c1ccccc1)(c1ccccc1)n1ccnc1`: the 90% effect concentration (IC90) is 5.36 µg/mL (≈ 15.6 µM).

Turning to `Cc1cc(C(C)(C)CC(C)(C)C)ccc1OCCOCC[N+](C)(C)Cc1ccccc1`, the 90% effect concentration (IC90) was 4.91 µg/mL.

Take `CCN(CC)C(=S)SSC(=S)N(CC)CC`: the IC90 is 0.164 µg/mL (≈ 0.553 µM).

`Cc1cc(N)c2ccccc2[n+]1CCCCCCCCCC[n+]1c(C)cc(N)c2ccccc21`: the IC90 was 1.78 µg/mL.

Turning to `CC/C(=C(\c1ccccc1)c1ccc(OCCN(C)C)cc1)c1ccccc1`, the concentration for an effect of 90% (IC90) is 13.6 µg/mL (≈ 36.7 µM).

As for `CCCCCCC[N+](CC)(CC)CCCCc1ccc(Cl)cc1`, the IC90 is 15.6 µg/mL.

Consider `CSc1ccc2c(c1)N(CCC1CCCCN1C)c1ccccc1S2` (stereo unspecified), for which the concentration for an effect of 90% (IC90) was 3.01 µg/mL (≈ 8.13 µM).

`N[C@H]1CONC1=O`: the concentration for an effect of 90% (IC90) is 2.27 µg/mL (≈ 22.3 µM).

Turning to `Fc1ccc(C(OCCN2CCN(CCCc3ccccc3)CC2)c2ccc(F)cc2)cc1`, the IC90 was 3.58 µg/mL (≈ 7.94 µM).

`Oc1c(I)cc(Cl)c2cccnc12`: the IC90 is 0.482 µg/mL (≈ 1.58 µM).

For the molecule `CO[C@H]1/C=C/O[C@@]2(C)Oc3c(C)c(O)c4c(O)c(c(/C=N/N5CCN(C)CC5)c(O)c4c3C2=O)NC(=O)/C(C)=C\C=C\[C@H](C)[C@H](O)[C@@H](C)[C@@H](O)[C@@H](C)[C@H](OC(C)=O)[C@@H]1C`, the IC90 was 0.04 µg/mL (≈ 0.0486 µM).

As to `CS(=O)(=O)c1ccc([C@@H](O)[C@@H](CO)NC(=O)C(Cl)Cl)cc1`, the concentration for an effect of 90% (IC90) is 2.42 µg/mL (≈ 6.81 µM).

On to `CCSc1ccc2c(c1)N(CCCN1CCN(C)CC1)c1ccccc1S2`, for which the 90% effect concentration (IC90) was 6.34 µg/mL (≈ 15.9 µM).

`Clc1ccc(CSC(Cn2ccnc2)c2ccc(Cl)cc2Cl)cc1` (stereo unspecified): the IC90 is 2.53 µg/mL (≈ 6.37 µM).

Consider `CN(C)CCCN1c2ccccc2Sc2ccc(Cl)cc21`, for which the IC90 was 7.45 µg/mL (≈ 23.4 µM).

For `CCCCN(CCCC)CCC(O)c1cc2c(Cl)cc(Cl)cc2c2cc(C(F)(F)F)ccc12` (stereo unspecified), the 90% effect concentration (IC90) is 1.15 µg/mL (≈ 2.3 µM).

As for `CC(NCCC(c1ccccc1)c1ccccc1)c1ccccc1` (stereo unspecified), the IC90 is 8.02 µg/mL (≈ 25.4 µM).

Consider `O=C(Nc1ccc([N+](=O)[O-])cc1Cl)c1cc(Cl)ccc1O`, for which the IC90 is 0.076 µg/mL (≈ 0.232 µM).

Regarding `CN1CCCC(CC2c3ccccc3Sc3ccccc32)C1` (stereo unspecified), the concentration for an effect of 90% (IC90) is 10.4 µg/mL (≈ 33.7 µM).

On to `CC[C@H](C)[C@H]1O[C@]2(CC[C@@H]1C)C[C@@H]1C[C@@H](C/C=C(\C)[C@@H](O[C@H]3C[C@H](OC)[C@@H](O[C@H]4C[C@H](OC)[C@@H](O)[C@H](C)O4)[C@H](C)O3)[C@@H](C)/C=C/C=C3\CO[C@@H]4[C@H](O)C(C)=C[C@@H](C(=O)O1)[C@]34O)O2`, for which the concentration for an effect of 90% (IC90) is 1.29 µg/mL (≈ 1.48 µM).

Regarding `O=C1OCCN1/N=C/c1ccc([N+](=O)[O-])o1`, the IC90 is 5.4 µg/mL (≈ 24 µM).

In the case of `CCN(CC)CCNc1ccc(CO)c2sc3ccccc3c(=O)c12`, the IC90 was 19.4 µg/mL (≈ 54.5 µM).

In the case of `O=C1C=CC(=O)c2c1ccc1c2ccc2ccccc21`, the 90% effect concentration (IC90) was 2.17 µg/mL (≈ 8.42 µM).

Regarding `CCn1cc(C(=O)O)c(=O)c2cc(F)c(N3CCNCC3)cc21`, the concentration for an effect of 90% (IC90) is 0.81 µg/mL (≈ 2.54 µM).

Turning to `CC[C@H]1OC(=O)[C@H](C)[C@@H](OC2C[C@@](C)(OC)[C@@H](O)[C@H](C)O2)[C@H](C)[C@@H](O[C@@H]2O[C@H](C)C[C@H](N(C)C)[C@H]2O)[C@](C)(O)C[C@@H](C)/C(=N\OCOCCOC)[C@H](C)[C@@H](O)[C@]1(C)O` (stereo partly specified), the IC90 is 11.5 µg/mL (≈ 13.7 µM).

For `CCC(C)N1CCC2(CC1)N=c1c(c3c4c5c(C)c(O)c3c(O)c1=NC(=O)/C(C)=C/C=C/[C@H](C)[C@H](O)[C@@H](C)[C@@H](O)[C@@H](C)[C@H](OC(C)=O)[C@H](C)[C@@H](OC)/C=C/O[C@@](C)(O5)C4=O)N2` (stereo partly specified), the IC90 is 0.04 µg/mL (≈ 0.0472 µM).
